In this assay the target is human S1P3 receptor (Homo sapiens (Human), UniProt Q99500). Briefly: Activation or block of activation of human S1P3 receptor, Ca+2 FLIPR assay. It is filed as cell-based. Particulars: for IC50: read-out: S1P3 IC50. Put shortly: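 T24 cells stably expressing human S1P3, grown in charcoal-treated FBS, dye-loaded and read on FLIPR for calcium after ligand addition in HBSS/20 mM HEPES (1 s readings for 75 s, then every 10 s for 2.5 min). Agonist or antagonist mode; S1P positive control in 4 mg/ml fatty-acid-free BSA. IC50 by Levenberg–Marquardt regression.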
Sequence of human S1P3 receptor (Q99500 whole entry): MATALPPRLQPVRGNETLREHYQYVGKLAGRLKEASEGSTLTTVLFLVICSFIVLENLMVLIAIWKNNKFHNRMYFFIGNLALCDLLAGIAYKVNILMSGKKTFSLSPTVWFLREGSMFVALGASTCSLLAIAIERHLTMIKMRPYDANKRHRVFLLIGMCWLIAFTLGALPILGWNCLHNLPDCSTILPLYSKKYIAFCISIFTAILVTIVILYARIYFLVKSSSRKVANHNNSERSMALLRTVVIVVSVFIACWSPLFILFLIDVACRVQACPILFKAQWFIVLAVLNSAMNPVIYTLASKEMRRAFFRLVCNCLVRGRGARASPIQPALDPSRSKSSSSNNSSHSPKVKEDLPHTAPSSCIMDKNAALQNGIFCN

Setting [1] is: T24 cells stably expressing the human S1P3 receptor, FLIPR Ca+2 response, 0.61 nM to 10,000 nM.
The mark [2] stands for this setting: T24 cells stably expressing the human S1P3 receptor, value in brackets.

Like-named read-outs stand apart in the source and are kept apart here.

On to `CC(C)c1c(C(=O)NCc2cncc(F)c2)c2ccc(C3=N[C@@H](C)CO3)cc2n1Cc1ccccc1` [Compound 72, (S)-1-Benzyl-N-((5-fluoropyridin-3-yl)methyl)-2-isopropyl-6-(4-methyl-4,5-dihydrooxazol-2-yl)-1H-indole-3-carboxamide], for which the “S1P3 (% inh)” value was 43 nM (99) % and the IC50 (in general, the concentration at which inhibition is half-maximal) came to 43 nM. `CC(C)c1c(C(=O)NCc2cc(F)cc(F)c2)c2ccc(NC3CCC3)cc2n1Cc1ccccc1` [Compound 194, 1-Benzyl-6-(cyclobutylamino)-N-(3,5-difluorobenzyl)-2-isopropyl-1H-indole-3-carboxamide]: the “S1P3 (% inh)” value was 20 nM (100) % and the concentration for half-maximal inhibition (IC50) was 20 nM. On the same counts, the results for `CC(C)c1c(C(=O)NCc2ccc(F)c(F)c2)c2ccc(O)cc2n1Cc1cccnc1` [Compound 151, N-(3,4-Difluorobenzyl)-6-hydroxy-2-isopropyl-1-(pyridin-3-ylmethyl)-1H-indole-3-carboxamide] are 65 nM (98) % and 65 nM. For the molecule `CC(C)c1c(C(=O)NCc2ccc(F)c(F)c2)c2ccc(/C=N/N(C)C)cc2n1Cc1ccccn1`, the half-maximal inhibitory concentration (IC50) under setting [1] was 93 nM. Besides, the “S1P3 (% inh)” value under setting [2] worked out at 100%. On the same counts, the results for `C#CCOc1ccc2c(C(=O)NCc3ccc(F)c(F)c3)c(C(C)C)n(Cc3ccccn3)c2c1` are 324 nM and 99%.

For the molecule `CC(C)Oc1ccc2c(C(=O)NCc3ccc(F)c(F)c3)c(C(C)C)n(Cc3cccnc3)c2c1` [Compound 154, N-(3,4-Difluorobenzyl)-6-isopropoxy-2-isopropyl-1-(pyridin-3-ylmethyl)-1H-indole-3-carboxamide], the IC50 under setting [1] came out at 15 nM. In addition, the “S1P3 (% inh)” value under setting [2] amounted to 100%. In the same order, the values of `CC[C@H]1COC(c2ccc3c(C(=O)NCc4cncc(F)c4)c(C(C)C)n(Cc4ccccc4)c3c2)=N1` [Compound 73, (S)-1-Benzyl-6-(4-ethyl-4,5-dihydrooxazol-2-yl)-N-((5-fluoropyridin-3-yl)methyl)-2-isopropyl-1H-indole-3-carboxamide] are 35 nM and 100%. Consider `CC(C)c1c(C(=O)NCc2ccc(F)c(F)c2)c2ccc(C(=O)O)cc2n1Cc1ccccc1`, for which the IC50 under setting [1] is over 10000 nM. Moreover, the “S1P3 (% inh)” value under setting [2] was determined as 40%. On the same counts, the results for `CC(C)c1c(C(=O)NCc2ccc(F)c(F)c2)c2ccc(N3CCCC3=O)cc2n1Cc1ccccc1` [Compound 128, 1-Benzyl-N-(3,4-difluorobenzyl)-2-isopropyl-6-(2-oxopyrrolidin-1-yl)-1H-indole-3-carboxamide] are 502 nM and 99%. `CCOC(=O)c1ccc2c(C(=O)NCc3cncc(F)c3)c(C(C)C)n(Cc3ccccc3)c2c1` [Compound 44, Ethyl 1-Benzyl-3-((5-fluoropyridin-3-yl)methylcarbamoyl)-2-isopropyl-1H-indole-6-carboxylate]: the “S1P3 (% inh)” value is 24 nM (100) % and the 50% inhibitory concentration (IC50) came to 24 nM. For `CC(C)c1c(C(=O)NCc2ccc(F)c(F)c2)c2ccc(OCc3ccccc3)cc2n1Cc1ccccc1` [Compound 15, 1-Benzyl-6-(benzyloxy)-N-(3,4-difluorobenzyl)-2-isopropyl-1H-indole-3-carboxamide], the “S1P3 (% inh)” value is 260 nM (100) % and the IC50 is 260 nM.

In the case of `CC(C)c1c(C(=O)NCc2ccc(F)c(F)c2)c2ccc(OC3CCNC3)cc2n1Cc1ccccc1` (centres unmarked), under setting [1], the half-inhibitory concentration (IC50) was 2400 nM. For the same molecule, under setting [2], the “S1P3 (% inh)” value stood at 80%. With `CC(C)Oc1ccc2c(C(=O)NCc3ccc(F)c(F)c3)c(C(C)C)n(Cc3ccccc3)c2c1` [Compound 11, 1-Benzyl-N-(3,4-difluorobenzyl)-6-isopropoxy-2-isopropyl-1H-indole-3-carboxamide], the Kb (T24 cells stably expressing the human S1P3 receptor, second concentration in the cell, read-out: S1P3 Kb) stood at 2 nM.

`CC(C)Oc1ccc2c(C(=O)NCc3ccc(F)c(F)c3)c(CN3CCCC3)n(Cc3ccccn3)c2c1` [Compound 175, N-(3,4-Difluorobenzyl)-6-isopropoxy-1-(pyridin-2-ylmethyl)-2-(pyrrolidin-1-ylmethyl)-1H-indole-3-carboxamide]: under setting [1], the concentration for half-maximal inhibition (IC50) amounted to 1100 nM. Under setting [2], the “S1P3 (% inh)” value turned out to be 100%. Turning to `CC(C)CO/N=C/c1ccc2c(C(=O)NCc3ccc(F)c(F)c3)c(C(C)C)n(Cc3ccccc3)c2c1`, the IC50 under setting [1] was 88 nM. Also, the “S1P3 (% inh)” value under setting [2] is on record as 100%.

`CC(C)c1c(C(=O)NCc2ccc(F)c(F)c2)c2ccc(C3=N[C@@H](C)CO3)cc2n1Cc1cccnc1` [Compound 82, (S)—N-(3,4-Difluorobenzyl)-2-isopropyl-6-(4-methyl-4,5-dihydrooxazol-2-yl)-1-(pyridin-3-ylmethyl)-1H-indole-3-carboxamide]: the IC50 under setting [1] came to 44 nM. Also, the “S1P3 (% inh)” value under setting [2] is 100%. In the same order, the values of `CCOC(=O)c1ccc2c(C(=O)NCc3ccc(F)c(F)c3)c(C(C)C)n(Cc3ncco3)c2c1` [Compound 47, Ethyl 3-(3,4-Difluorobenzylcarbamoyl)-2-isopropyl-1-(oxazol-2-ylmethyl)-1H-indole-6-carboxylate] are 350 nM and 100%. In the same order, the values of `CCNC(=O)c1ccc2c(C(=O)NCc3ccc(F)c(F)c3)c(C(C)C)n(Cc3ccccc3)c2c1` are 346 nM and 99%.

On to `C#CCNC(=O)c1ccc2c(C(=O)NCc3ccc(F)c(F)c3)c(C(C)C)n(Cc3ccccc3)c2c1` [Compound 69, 1-Benzyl-N3-(3,4-difluorobenzyl)-2-isopropyl-N6-(prop-2-ynyl)-1H-indole-3,6-dicarboxamide], for which the IC50 under setting [1] turned out to be 5000 nM. Further, the “S1P3 (% inh)” value under setting [2] amounted to 98%. On the same counts, the results for `CC(C)C(=O)Nc1ccc2c(C(=O)NCc3ccc(F)c(F)c3)c(C(C)C)n(Cc3ccccc3)c2c1` [Compound 127, 1-Benzyl-N-(3,4-difluorobenzyl)-6-isobutyramido-2-isopropyl-1H-indole-3-carboxamide] are 890 nM and 97%. Regarding `CCCCCCOc1ccc2c(C(=O)NCc3ccc(F)c(F)c3)c(C(C)C)n(Cc3ccccc3)c2c1` [Compound 14, 1-Benzyl-N-(3,4-difluorobenzyl)-6-(hexoxy)-2-isopropyl-1H-indole-3-carboxamide], the “S1P3 (% inh)” value is reported as 3.1 μM (96) % and the concentration for half-maximal inhibition (IC50) was found to be 3100 nM. `CCOC(=O)c1ccc2c(C(=O)NCc3ccccc3)c(C(C)C)n(Cc3ccccc3)c2c1`: the half-inhibitory concentration (IC50) under setting [1] was determined as 9 nM. Further, the “S1P3 (% inh)” value under setting [2] was determined as 96%.

With `CC(C)C(=O)Oc1ccc2c(C(=O)NCc3ccc(F)c(F)c3)c(C(C)C)n(Cc3ccccc3)c2c1` [Compound 25, 1-Benzyl-3-(3,4-difluorobenzylcarbamoyl)-2-isopropyl-1H-indol-6-yl Isobutyrate], the “S1P3 (% inh)” value was 14 nM (100) % and the IC50 was determined as 14 nM. For the molecule `CC(C)Oc1ccc2c(C(=O)NCc3ccc(F)c(F)c3)c(C(C)C)n(Cc3ncco3)c2c1` [Compound 213, N-(3,4-Difluorobenzyl)-6-isopropoxy-2-isopropyl-1-(oxazol-2-ylmethyl)-1H-indole-3-carboxamide], the half-maximal inhibitory concentration (IC50) under setting [1] was found to be 189 nM. Under setting [2], the “S1P3 (% inh)” value is listed as 100%. For `CC(C)Cn1c(C(C)C)c(C(=O)NCc2ccc(F)c(F)c2)c2ccc(OC3CCCC3)cc21` [Compound 159, 6-(Cyclopentyloxy)-N-(3,4-difluorobenzyl)-1-isobutyl-2-isopropyl-1H-indole-3-carboxamide], the 50% inhibitory concentration (IC50) under setting [1] was 41 nM. Further, the “S1P3 (% inh)” value under setting [2] was 96%. In the case of `CCOC(=O)Cn1c(C(C)C)c(C(=O)NCc2ccc(F)c(F)c2)c2ccc(OC3CCCC3)cc21` [Compound 223, Ethyl 2-(6-(Cyclopentyloxy)-3-(3,4-difluorobenzylcarbamoyl)-2-isopropyl-1H-indol-1-yl)acetate], the “S1P3 (% inh)” value is recorded as 24 nM (100) % and the IC50 came to 24 nM. In the case of `CC(C)c1c(C(=O)NCc2ccc(F)c(F)c2)c2ccc(N(C)C3CCCC3)cc2n1Cc1ccccc1` [Compound 189, 1-Benzyl-6-(cyclopentyl(methyl)amino)-N-(3,4-difluorobenzyl)-2-isopropyl-1H-indole-3-carboxamide], the concentration for half-maximal inhibition (IC50) under setting [1] came out at 87 nM. For the same molecule, the “S1P3 (% inh)” value under setting [2] was 100%. Regarding `CC(C)COc1ccc2c(C(=O)NCc3cncc(F)c3)c(C(C)C)n(Cc3ccccn3)c2c1` [Compound 149, N-((5-Fluoropyridin-3-yl)methyl)-6-isobutoxy-2-isopropyl-1-(pyridin-2-ylmethyl)-1H-indole-3-carboxamide], the IC50 under setting [1] came to 29 nM. For the same molecule, the “S1P3 (% inh)” value under setting [2] is recorded as 100%. In the same order, the values of `CC(C)c1c(C(=O)NCc2ccc(F)c(F)c2)c2ccc(CN3CCCC3)cc2n1Cc1ccccc1` are 362 nM and 93%. `CCCOc1ccc2c(C(=O)NCc3ccc(F)c(F)c3)c(C(C)C)n(Cc3ncco3)c2c1` [Compound 212, N-(3,4-Difluorobenzyl)-2-isopropyl-1-(oxazol-2-ylmethyl)-6-propoxy-1H-indole-3-carboxamide]: the “S1P3 (% inh)” value is given as 393 nM (100) % and the concentration for half-maximal inhibition (IC50) worked out at 393 nM. For `CC(C)c1c(C(=O)NCc2ccc(F)c(F)c2)c2ccc(/C=N/O)cc2n1Cc1ccccc1` [Compound 55, (E)-1-Benzyl-N-(3,4-difluorobenzyl)-6-((hydroxyimino)methyl)-2-isopropyl-1H-indole-3-carboxamide], the IC50 under setting [1] stood at 234 nM. Besides, the “S1P3 (% inh)” value under setting [2] came to 100%. Take `CC(C)c1c(C(=O)NCc2cncc(F)c2)c2ccc(NC3CCCC3)cc2n1Cc1ccccc1` [Compound 193, 1-Benzyl-6-(cyclopentylamino)-N-((5-fluoropyridin-3-yl)methyl)-2-isopropyl-1H-indole-3-carboxamide]: the “S1P3 (% inh)” value was 163 nM (100) % and the IC50 amounted to 163 nM.

In the case of `CCOC(=O)c1ccc2c(C(=O)NCc3cccc(F)c3)c(C(C)C)n(Cc3ccccc3)c2c1`, under setting [1], the IC50 stood at 42 nM. Besides, the “S1P3 (% inh)” value under setting [2] amounted to 99%.

These data come from US8524917B2, “6-substituted indole-3-carboxylic acid amide compounds having sphingosine-1-phosphate (S1P) receptor antagonist biological activity” (Allergan, Inc., priority 2007, dated 2013).
